In brackets after ≈: the same amount, converted by molar mass.
Legend:
Format in all cases: functional
[1] = test system: Mycobacterium tuberculosis; experiment: Antimycobacterial activity against isoniazid and rifampicin-resistant Mycobacterium tuberculosis MTB985 clinical isolate by MTT assay
[2] = test system: Mycobacterium tuberculosis; experiment: Antimycobacterial activity against isoniazid and rifampicin-resistant Mycobacterium tuberculosis MTB411 clinical isolate by MTT assay
[3] = test system: Mycobacterium tuberculosis; experiment: Antimycobacterial activity against isoniazid and rifampicin-resistant Mycobacterium tuberculosis UT544 clinical isolate by MTT assay
[4] = test system: Mycobacterium tuberculosis; experiment: Antimycobacterial activity against isoniazid and rifampicin-resistant Mycobacterium tuberculosis MTB4000 clinical isolate by MTT assay
[5] = test system: Mycobacterium tuberculosis; experiment: Antimycobacterial activity against isoniazid and rifampicin-resistant Mycobacterium tuberculosis MTB2556 clinical isolate by MTT assay
[6] = test system: Mycobacterium tuberculosis; experiment: Antimycobacterial activity against streptomycin-resistant Mycobacterium tuberculosis H37Rv ATCC 35820 by MTT assay
[7] = test system: Mycobacterium tuberculosis; experiment: Antimycobacterial activity against isoniazid-resistant Mycobacterium tuberculosis H37Rv ATCC 35822 by MTT assay
[8] = test system: Mycobacterium tuberculosis; experiment: Antimycobacterial activity against rifampicin-resistant Mycobacterium tuberculosis H37Rv ATCC 35838 by MTT assay
[9] = test system: Mycobacterium tuberculosis; experiment: Antimycobacterial activity against ethambutol-resistant Mycobacterium tuberculosis H37Rv ATCC 35837 by MTT assay

| Compound | MIC [1] [µg/mL] | MIC [2] [µg/mL] | MIC [3] [µg/mL] | MIC [4] [µg/mL] | MIC [5] [µg/mL] | MIC [6] [µg/mL] | MIC [7] [µg/mL] | MIC [8] [µg/mL] | MIC [9] [µg/mL] |
| --- | --- | --- | --- | --- | --- | --- | --- | --- | --- |
| Cc1nn(-c2ccccc2)c2nc3c(c(-c4ccccc4)c12)C(=O)C(=O)c1ccccc1-3 | ≤ 2 | 4 (≈ 9.63 µM) | ≤ 2 | ≤ 2 | ≤ 2 | ≤ 2 | ≤ 2 | ≤ 2 | ≤ 2 |
| Cc1ccc(-c2c3c(nc4c2c(C)nn4-c2ccccc2)-c2ccccc2C(=O)C3=O)cc1 | ≤ 2 | 4 (≈ 9.31 µM) | ≤ 2 | ≤ 2 | ≤ 2 | ≤ 2 | ≤ 2 | 4 (≈ 9.31 µM) | 4 (≈ 9.31 µM) |
| COc1cc(-c2c3c(nc4c2c(C)nn4-c2ccccc2)-c2ccccc2C(=O)C3=O)cc(OC)c1OC | > 32 | > 32 | > 32 | > 32 | > 32 | > 32 | > 32 | > 32 | > 32 |
| Cc1nn(-c2ccccc2)c2nc3c(c(-c4ccc(Cl)cc4)c12)C(=O)C(=O)c1ccccc1-3 | > 32 | > 32 | > 32 | > 32 | > 32 | > 32 | > 32 | > 32 | > 32 |
| Cc1nn(-c2ccccc2)c2nc3c(c(-c4ccc(F)cc4)c12)C(=O)C(=O)c1ccccc1-3 | ≤ 2 | 4 (≈ 9.23 µM) | ≤ 2 | ≤ 2 | ≤ 2 | ≤ 2 | ≤ 2 | 4 (≈ 9.23 µM) | 4 (≈ 9.23 µM) |
| O=C1C(=O)c2ccccc2C2=C1C(c1ccccc1)c1c(-c3ccccc3)n[nH]c1N2 (stereo not given) | > 32 | > 32 | > 32 | > 32 | > 32 | > 32 | > 32 | > 32 | > 32 |
| Cc1ccc(C2C3=C(Nc4[nH]nc(-c5ccccc5)c42)c2ccccc2C(=O)C3=O)cc1 (stereo not given) | > 32 | > 32 | > 32 | > 32 | > 32 | > 32 | > 32 | > 32 | > 32 |
| COc1ccc(C2C3=C(Nc4[nH]nc(-c5ccccc5)c42)c2ccccc2C(=O)C3=O)cc1 (stereo not given) | > 32 | > 32 | > 32 | > 32 | > 32 | > 32 | > 32 | > 32 | > 32 |
| Cc1ccc(-c2n[nH]c3c2C(c2ccccc2)C2=C(N3)c3ccccc3C(=O)C2=O)cc1 (stereo not given) | 16 (≈ 38.3 µM) | 16 (≈ 38.3 µM) | 16 (≈ 38.3 µM) | 16 (≈ 38.3 µM) | 16 (≈ 38.3 µM) | 16 (≈ 38.3 µM) | 16 (≈ 38.3 µM) | 4 (≈ 9.58 µM) | 16 (≈ 38.3 µM) |
| O=C1C(=O)c2ccccc2C2=C1C(c1ccccc1)c1c(-c3ccc(Cl)cc3)n[nH]c1N2 (stereo not given) | > 32 | > 32 | > 32 | > 32 | > 32 | > 32 | > 32 | > 32 | > 32 |
| O=C1C(=O)c2ccccc2C2=C1C(c1ccccc1)c1c(-c3ccc([N+](=O)[O-])cc3)n[nH]c1N2 (stereo not given) | 8 (≈ 17.8 µM) | 16 (≈ 35.7 µM) | 8 (≈ 17.8 µM) | 16 (≈ 35.7 µM) | 8 (≈ 17.8 µM) | 16 (≈ 35.7 µM) | 16 (≈ 35.7 µM) | 16 (≈ 35.7 µM) | > 32 |
| Cc1ccc(-c2n[nH]c3nc4c(c(-c5ccc([N+](=O)[O-])cc5)c23)C(=O)C(=O)c2ccccc2-4)cc1 | > 32 | > 32 | > 32 | > 32 | > 32 | > 32 | > 32 | > 32 | > 32 |
| COc1ccc(-c2c3c(nc4[nH]nc(-c5ccc(Cl)cc5)c24)-c2ccccc2C(=O)C3=O)cc1 | 16 (≈ 34.3 µM) | 16 (≈ 34.3 µM) | 8 (≈ 17.2 µM) | 16 (≈ 34.3 µM) | 8 (≈ 17.2 µM) | 16 (≈ 34.3 µM) | > 32 | 16 (≈ 34.3 µM) | > 32 |
| NNC(=O)c1ccncc1 [ISONIAZID] | > 0.5 | > 0.5 | > 0.5 | > 0.5 | > 0.5 | 0.25 (≈ 1.82 µM) | > 0.5 | 0.25 (≈ 1.82 µM) | 0.25 (≈ 1.82 µM) |
| CO[C@H]1/C=C/O[C@@]2(C)Oc3c(C)c(O)c4c(O)c(c(/C=N/N5CCN(C)CC5)c(O)c4c3C2=O)NC(=O)/C(C)=C\C=C\[C@H](C)[C@H](O)[C@@H](C)[C@@H](O)[C@@H](C)[C@H](OC(C)=O)[C@@H]1C [RIFAMPIN] | > 0.5 | > 0.5 | > 0.5 | > 0.5 | > 0.5 | 0.125 (≈ 0.152 µM) | 0.125 (≈ 0.152 µM) | > 0.5 | 0.125 (≈ 0.152 µM) |
